Drawing on patent US9493396B2, “Substituted naphthalene compounds as calcium sensing receptor modulators” (LUPIN ATLANTIS HOLDINGS SA, priority 2013, dated 2016), this text covers EC50 for 26 molecules.

Molecules are shown by their SMILES. Structures can show the parent of a compound that is named as a salt.

This experiment deals with T1, Calcium sensing receptor (hCaSR) (Homo sapiens, UniProt P41180).
T1 construct: expressed in transfected cells; host or cells: HEK293 (stably transfected)
T1 sequence (P41180 20-1078): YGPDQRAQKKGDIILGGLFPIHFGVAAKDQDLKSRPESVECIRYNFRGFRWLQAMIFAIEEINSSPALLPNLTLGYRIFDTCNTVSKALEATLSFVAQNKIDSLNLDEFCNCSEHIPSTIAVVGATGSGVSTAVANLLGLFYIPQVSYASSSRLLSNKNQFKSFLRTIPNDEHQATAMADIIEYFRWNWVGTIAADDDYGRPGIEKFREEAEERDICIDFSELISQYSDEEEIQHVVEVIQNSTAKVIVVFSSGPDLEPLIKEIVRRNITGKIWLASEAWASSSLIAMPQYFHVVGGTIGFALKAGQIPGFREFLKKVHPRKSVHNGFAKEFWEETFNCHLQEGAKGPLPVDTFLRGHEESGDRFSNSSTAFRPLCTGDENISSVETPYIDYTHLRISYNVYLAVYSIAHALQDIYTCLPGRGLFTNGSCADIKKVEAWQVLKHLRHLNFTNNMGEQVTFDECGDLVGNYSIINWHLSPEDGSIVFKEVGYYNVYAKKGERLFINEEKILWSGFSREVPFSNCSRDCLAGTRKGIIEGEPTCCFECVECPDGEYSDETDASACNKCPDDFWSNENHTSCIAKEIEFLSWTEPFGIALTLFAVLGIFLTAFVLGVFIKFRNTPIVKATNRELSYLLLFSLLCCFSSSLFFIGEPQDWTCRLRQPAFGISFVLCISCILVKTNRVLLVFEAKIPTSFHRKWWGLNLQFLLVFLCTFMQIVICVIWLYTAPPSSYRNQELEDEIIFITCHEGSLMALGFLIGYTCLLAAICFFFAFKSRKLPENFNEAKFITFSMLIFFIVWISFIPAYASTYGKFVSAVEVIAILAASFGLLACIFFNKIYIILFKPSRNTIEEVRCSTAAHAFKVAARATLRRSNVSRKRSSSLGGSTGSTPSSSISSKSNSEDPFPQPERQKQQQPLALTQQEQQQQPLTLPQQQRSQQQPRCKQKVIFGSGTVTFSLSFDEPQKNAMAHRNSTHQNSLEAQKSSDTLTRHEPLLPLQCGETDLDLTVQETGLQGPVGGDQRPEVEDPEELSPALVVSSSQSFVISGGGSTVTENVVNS
The experiment is described as follows: In-vitro assay of calcimimetics through modulation of calcium sensing receptor (intracellular calcium increase, FLIPR). Type of experiment: cell-based. The following applies: stably transfected HEK293 cells expressing hCaSR; Fluo4NW dye; 0.3 mM CaCl2; 8-point assay; read-out: EC50 in range. Here is the method:
In-Vitro Assay Method of Calcimimetics Through Modulation of Calcium Sensing Receptor (CaSR): The ability of the compounds to modulate Calcium sensing receptor is determined by measuring an increase in intracellular calcium [Ca^2+]i. Stably transfected HEK293 cells expressing hCaSR_pTriEx-3 hygro vector are developed. Cells are grown overnight on a 96-well plate to 80% confluency in Ham's F12 containing 20% FBS at 37° C., 5% CO2. Subsequently, cells are washed extensively with 20 mM HEPES buffer containing 126 mM […], 1 mM MgCl2 and 4 mM KCl to remove serum components that might interfere with the assay. Cells are loaded with calcium sensing Fluo4NW dye in HEPES base buffer containing 0.1% BSA and 1 mg/ml glucose for 30 minutes to measure changes in intracellular calcium. The activities of the compounds are measured in FLIPR using 0.3 mM CaCl2 in 20 mM HEPES base buffer. The effectiveness of the compound to modulate receptor activity is determined by calculating the EC50 responses for that compound in an 8-point assay and plotted using GraphPad Prism 5.
(In general: Calcium assays in cells follow changes in intracellular calcium, usually with a dye or a luminescent sensor.)
On to `COc1cccc([C@@H](C)NCc2cc(-c3ccc(C(C)C)c(C(=O)O)c3)c3ccccc3c2)c1` [Example 105, (R)-2-Isopropyl-5-(3-(((1-(3-methoxyphenyl)ethyl)amino)methyl)naphthalen-1-yl)benzoic acid hydrochloride], for which the half-maximal effective concentration (EC50) was in the range of 50 to 400 nM. In the case of `COc1cc([C@@H](C)NC(C)c2cc(-c3ccc(C(F)(F)F)cc3)c3ccccc3c2)ccc1F` (mixture of isomers) [Example 11, (1R)-1-(4-Fluoro-3-methoxyphenyl)-N-(1-(4-(4-(trifluoromethyl)phenyl)naphthalen-2-yl)ethyl)ethanamine hydrochloride] it was less than 20 nM. On to `CC(N[C@H](C)c1cccc2ccccc12)c1cc(-c2ccc(C(F)(F)F)cc2)c2ccccc2c1` (single isomer, unassigned) [Example 9b, hydrochloride], for which the EC50 is less than 20 nM. To `CCCOc1cccc([C@@H](C)NCc2cc(-c3ccc(C)c(C(=O)O)c3)c3ccccc3c2)c1` [Example 92, (R)-2-Methyl-5-(3-(((1-(3-propoxyphenyl)ethyl)amino)methyl)naphthalen-1-yl)benzoic acid hydrochloride] belongs 50 to 400 nM. Take `CC(N[C@H](C)c1cccc(Cl)c1)c1cc(-c2ccc(F)cc2)c2ccccc2c1` (stereo partly drawn) [Example 16, (1R)-1-(3-Chlorophenyl)-N-(1-(4-(4-fluorophenyl)naphthalen-2-yl)ethyl)ethanamine hydrochloride]: the EC50 is less than 20 nM. In the case of `Cc1ccc(-c2cc(CN[C@H](C)c3cccc(OCC(F)F)c3)cc3ccccc23)cc1C(=O)O` [Example 95, (R)-5-(3-(((1-(3-(2,2-Difluoroethoxy)phenyl)ethyl)amino)methyl)naphthalen-1-yl)-2-methylbenzoic acid hydrochloride] it was 50 to 400 nM; in that of `COc1cccc([C@@H](C)NC(C)c2cc(-c3ccc(C(=O)O)cc3)c3ccccc3c2)c1` (stereo partly drawn) [Example 119, 4-(3-(1-(((R)-1-(3-Methoxyphenyl)ethyl)amino)ethyl)naphthalen-1-yl)benzoic acid hydrochloride], 50 to 400 nM.

Turning to `CC(N[C@H](C)c1cccc(Cl)c1)c1cc(-c2ccc(C(F)(F)F)cc2)c2ccccc2c1` (stereo partly drawn) [Example 10, (1R)-1-(3-Chlorophenyl)-N-(1-(4-(4-(trifluoromethyl)phenyl)naphthalen-2-yl)ethyl)ethanamine hydrochloride], the half-maximal effective concentration (EC50) was less than 20 nM.

Regarding `CCOc1cccc([C@@H](C)NCc2cc(-c3ccc(C)c(C(=O)O)c3)c3ccccc3c2)c1` [Example 91, hydrochloride], the EC50 was less than 20 nM. In the case of `COc1cccc([C@@H](C)NC(C)c2cc(-c3ccc(C(=O)O)c(Cl)c3)c3ccccc3c2)c1` (stereo partly drawn) [Example 121, 2-Chloro-4-(3-(1-(((R)-1-(3-methoxyphenyl)ethyl)amino)ethyl)naphthalen-1-yl)benzoic acid hydrochloride] it was 50 to 400 nM.

For the molecule `CCC(N[C@H](C)c1cccc(OC)c1)c1cc(-c2ccc(C(F)(F)F)cc2)c2ccccc2c1` (single isomer, unassigned) [Example 18a, hydrochloride], the EC50 is less than 20 nM. In the case of `COc1cc(F)cc(C(C)NC(C)c2cc(-c3ccc(C(F)(F)F)cc3)c3ccccc3c2)c1` (single isomer, unassigned) [Example 163a, 1-(3-Fluoro-5-methoxyphenyl)-N-(1-(4-(4-(trifluoromethyl)phenyl)naphthalen-2-yl)ethyl)ethanamine hydrochloride] it was 50 to 400 nM; in that of `COc1cccc([C@@H](C)NCc2cc(-c3ccc(C)c(C(=O)O)c3C)c3ccccc3c2)c1` [Example 109, (R)-3-(3-(((1-(3-Methoxyphenyl)ethyl)amino)methyl)naphthalen-1-yl)-2,6-dimethylbenzoic acid hydrochloride], 50 to 400 nM. For `COc1cccc([C@@H](C)NC(C)c2cc(-c3ccc(F)c(C(=O)O)c3)c3ccccc3c2)c1` (stereo partly drawn) [Example 123, 2-Fluoro-5-(3-(1-(((R)-1-(3-methoxyphenyl)ethyl)amino)ethyl)naphthalen-1-yl)benzoic acid hydrochloride], the EC50 is less than 20 nM. `Cc1ccc(-c2cc(CN[C@H](C)c3cccc4ccccc34)cc3ccccc23)cc1C(=O)O` [Example 89, (R)-2-Methyl-5-(3-(((1-(naphthalen-1-yl)ethyl)amino)methyl)naphthalen-1-yl) benzoic acid]: the EC50 fell in the range of 20 to 50 nM. With `COc1cccc([C@@H](C)NCc2cc(-c3cccc(C(=O)O)c3F)c3ccccc3c2)c1` [Example 103, (R)-2-Fluoro-3-(3-(((1-(3-methoxyphenyl)ethyl)amino)methyl)naphthalen-1-yl)benzoic acid hydrochloride], the half-maximal effective concentration (EC50) was in the range of 20 to 50 nM. In the case of `CC(N[C@H](C)c1cccc(Cl)c1)c1cc(-c2ccc(OC(F)(F)F)cc2)c2ccccc2c1` (stereo partly drawn) [Example 20, (1R)-1-(3-Chlorophenyl)-N-(1-(4-(4-(trifluoromethoxy)phenyl)naphthalen-2-yl)ethyl)ethanamine hydrochloride] it was less than 20 nM. To `COc1cccc([C@@H](C)NCc2cc(-c3ccc(C)c(C(=O)O)c3)c3ccccc3c2)c1` [Example 90, (R)-5-(3-(((1-(3-Methoxyphenyl)ethyl)amino)methyl)naphthalen-1-yl)-2-methylbenzoic acid hydrochloride] belongs less than 20 nM; to `COc1cccc([C@@H](C)NC(C)c2cc(-c3cc(F)cc(C(=O)O)c3)c3ccccc3c2)c1` (stereo partly drawn) [Example 118, 3-Fluoro-5-(3-(1-(((R)-1-(3-methoxyphenyl)ethyl)amino)ethyl)naphthalen-1-yl)benzoic acid hydrochloride], less than 20 nM; to `COc1cccc([C@@H](C)NC(C)c2cc(-c3ccc(C(=O)O)cc3F)c3ccccc3c2)c1` (stereo partly drawn) [Example 120, 3-Fluoro-4-(3-(1-(((R)-1-(3-methoxyphenyl)ethyl)amino)ethyl)naphthalen-1-yl)benzoic acid hydrochloride], less than 20 nM. In the case of `CCOc1cccc([C@@H](C)NCc2cc(-c3ccc(F)c(C(=O)O)c3)c3ccccc3c2)c1` [Example 98, hydrochloride] it was less than 20 nM. For the molecule `COc1cccc([C@@H](C)NCCCc2cc(-c3ccc(C(F)(F)F)cc3)c3ccccc3c2)c1` [Example 5, (R)-N-(1-(3-Methoxyphenyl)ethyl)-3-(4-(4-(trifluoromethyl)phenyl)naphthalen-2-yl)propan-1-amine hydrochloride], the EC50 lay in the range of 20 to 50 nM. To `COc1cccc([C@@H](C)NCc2cc(-c3ccc(C(C)(C)C(=O)O)cc3)c3ccccc3c2)c1` [Example 111, (R)-2-(4-(3-(((1-(3-Methoxyphenyl)ethyl)amino)methyl)naphthalen-1-yl)phenyl)-2-methylpropanoic acid hydrochloride] belongs 50 to 400 nM.

For the molecule `CC(N[C@H](C)c1cccc(Cl)c1)c1cc(-c2ccc(C3(F)COC3)cc2)c2ccccc2c1` (mixture of isomers) [Example 23, (1R)-1-(3-chlorophenyl)-N-(1-(4-(4-(3-fluorooxetan-3-yl)phenyl)naphthalen-2-yl)ethyl)ethanamine hydrochloride], the EC50 is less than 20 nM.

For `CCOc1cccc([C@@H](C)NC(C)c2cc(-c3ccc(C)c(C(=O)O)c3)c3ccccc3c2)c1` (stereo partly drawn) [Example 143, 5-(3-(1-(((R)-1-(3-Ethoxyphenyl)ethyl)amino)ethyl)naphthalen-1-yl)-2-methylbenzoic acid hydrochloride], the concentration giving a half-maximal response (EC50) is 20 to 50 nM.

Consider `CC(N[C@H](C)c1cccc(Cl)c1)c1cc(-c2ccc(S(C)(=O)=O)cc2)c2ccccc2c1` (stereo partly drawn) [Example 159, (1R)-1-(3-Chlorophenyl)-N-(1-(4-(4-(methylsulfonyl)phenyl)naphthalen-2-yl)ethyl)ethanamine hydrochloride], for which the EC50 lay in the range of 50 to 400 nM.

What is called EC50 is the concentration needed to bring the measured effect to its halfway point.
